The values below are quoted from earlier work in patent publication US20170135934A1, “Mouth Rinse for Prevention of Periodontal Disease” (priority 2015, published 2017).

Read-outs that look alike come from different tables or passages of the source. Residues, ends and D or L forms follow the SMILES beside them.

The conditions of series [1]: healthy volunteers; for urinary losses of dipeptides: continuous infusion; for side effects: continuous infusion of supplemented amino acid solution.
For another series, the system named is rat lymphocytes. Particulars: glutamine added to the medium.
Series [2] has as its system intestinal epithelial cell. Particulars: heat shock at 43 degrees C.; concentrations higher than 1 mM.
Series [3] concerns biopsies from normal human ileum, proximal colon and rectosigmoid colon. The following applies: compared with saline.
Series [4] deals with intracellular glutamine pool. The following applies: intravenous supply following cholecystectomy.
For series [5] the following is noted: patients, TPN over 5 days.

With `NCC(=O)N[C@@H](CCC(N)=O)C(=O)O` [GlyGln, glycyl-L glutamine, reference compound] (H-Gly-Gln-OH), in series [1], the “urinary losses of dipeptides” value was “about 1 % of the given dose” and the side effects result is listed as “not accompanied by any side effects”.

As for `NC(=O)CC[C@H](N)C(=O)O` [glutamine], the “proliferation of rat lymphocytes (radioactive thymidine)” value in the series on rat lymphocytes was “four-fold”. For the same compound, in series [2], the “percentage of floating cells” value is reported as “dose dependent decrease”. Further, the crypt cell proliferation result in series [3] is “equally stimulated crypt cell proliferation”.

For `C[C@H](N)C(=O)N[C@@H](CCC(N)=O)C(=O)O` [AlaGln, L-Alanyl-L-gutamine] (H-Ala-Gln-OH), in series [1], the “urinary losses of dipeptides” value is “about 1 % of the given dose” and the side effects entry is given as “not accompanied by any side effects”. For the same compound, the “intracellular glutamine pool preserved” value in series [4] is listed as 91 % of postoperative value. Besides, the crypt cell proliferation entry in series [3] is reported as “equally stimulated crypt cell proliferation”. Besides, in series [5], the peptide in plasma result is given as “not detectable” and the side effects entry is “free of any side effects”.
